For experiment [1], the target named is Tyrosine-protein kinase FRK (Homo sapiens) (UniProt P42685). The experiment in a line: Inhibition of FRK (unknown origin) at 0.164 uM relative to control.
For experiment [2], the target named is Serine/threonine-protein kinase Nek2 (Homo sapiens) (UniProt P51955). The experiment in a line: Inhibition of NEK2 (unknown origin) at 0.164 uM relative to control.
Experiment [3] concerns the target NUAK family SNF1-like kinase 1 (Homo sapiens) (UniProt O60285). The experiment in a line: Inhibition of NuaK1 (unknown origin) at 0.164 uM relative to control.
The target in experiment [4] is Mast/stem cell growth factor receptor Kit (Homo sapiens) (UniProt P10721). In words: Inhibition of KIT (unknown origin) at 0.164 uM relative to control.
For experiment [5], the target named is Calcium/calmodulin-dependent protein kinase type II subunit gamma (Homo sapiens) (UniProt Q13555). The experiment in a line: Inhibition of CaMK2-gamma (unknown origin) at 0.19 uM relative to control.
The target in experiment [6] is Activated CDC42 kinase 1 (Homo sapiens) (UniProt Q07912). In words: Inhibition of ACK (unknown origin) at 0.19 uM relative to control.

The structures appear in SMILES notation.

Tyrosine-protein kinase FRK (Homo sapiens), sequence (P42685 whole entry): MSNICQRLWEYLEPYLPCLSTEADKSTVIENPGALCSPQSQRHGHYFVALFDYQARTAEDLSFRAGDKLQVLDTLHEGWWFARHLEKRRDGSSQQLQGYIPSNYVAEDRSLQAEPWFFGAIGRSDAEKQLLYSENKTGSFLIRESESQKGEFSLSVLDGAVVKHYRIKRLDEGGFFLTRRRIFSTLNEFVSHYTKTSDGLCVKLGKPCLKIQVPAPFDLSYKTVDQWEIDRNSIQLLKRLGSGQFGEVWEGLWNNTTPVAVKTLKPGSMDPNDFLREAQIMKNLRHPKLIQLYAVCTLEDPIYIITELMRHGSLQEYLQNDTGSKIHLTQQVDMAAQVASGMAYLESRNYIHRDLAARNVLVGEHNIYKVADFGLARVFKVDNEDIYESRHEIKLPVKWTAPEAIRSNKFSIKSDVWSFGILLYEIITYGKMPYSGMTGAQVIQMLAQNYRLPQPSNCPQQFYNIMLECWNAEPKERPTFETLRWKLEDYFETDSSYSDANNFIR
Activated CDC42 kinase 1 (Homo sapiens), sequence (Q07912 whole entry, looked up): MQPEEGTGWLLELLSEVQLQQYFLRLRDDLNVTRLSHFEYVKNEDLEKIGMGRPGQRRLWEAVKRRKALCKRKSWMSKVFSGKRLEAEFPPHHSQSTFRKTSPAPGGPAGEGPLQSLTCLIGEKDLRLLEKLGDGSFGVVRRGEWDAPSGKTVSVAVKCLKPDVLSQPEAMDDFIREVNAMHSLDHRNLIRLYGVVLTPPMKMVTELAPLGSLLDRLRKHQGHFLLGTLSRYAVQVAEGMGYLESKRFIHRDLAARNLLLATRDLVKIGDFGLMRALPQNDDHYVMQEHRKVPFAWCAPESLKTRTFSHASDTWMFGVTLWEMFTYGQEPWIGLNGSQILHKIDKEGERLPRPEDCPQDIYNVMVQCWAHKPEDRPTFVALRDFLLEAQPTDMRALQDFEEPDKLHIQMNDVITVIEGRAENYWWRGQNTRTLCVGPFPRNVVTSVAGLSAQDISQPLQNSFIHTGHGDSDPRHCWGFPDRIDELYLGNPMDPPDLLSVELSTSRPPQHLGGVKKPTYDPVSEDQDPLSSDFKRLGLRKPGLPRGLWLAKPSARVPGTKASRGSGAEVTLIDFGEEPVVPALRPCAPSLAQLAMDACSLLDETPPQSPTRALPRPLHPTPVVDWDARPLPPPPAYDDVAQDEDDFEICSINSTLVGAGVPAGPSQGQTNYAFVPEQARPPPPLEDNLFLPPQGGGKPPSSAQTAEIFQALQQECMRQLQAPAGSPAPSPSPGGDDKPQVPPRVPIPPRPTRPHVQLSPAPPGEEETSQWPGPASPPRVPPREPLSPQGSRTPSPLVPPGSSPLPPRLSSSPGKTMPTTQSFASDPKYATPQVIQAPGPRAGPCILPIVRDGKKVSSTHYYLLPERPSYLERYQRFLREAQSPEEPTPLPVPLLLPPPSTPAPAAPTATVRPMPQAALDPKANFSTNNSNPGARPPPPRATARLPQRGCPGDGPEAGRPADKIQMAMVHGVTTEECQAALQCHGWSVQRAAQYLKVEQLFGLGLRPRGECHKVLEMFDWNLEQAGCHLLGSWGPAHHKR
Calcium/calmodulin-dependent protein kinase type II subunit gamma (Homo sapiens), sequence (Q13555 whole entry): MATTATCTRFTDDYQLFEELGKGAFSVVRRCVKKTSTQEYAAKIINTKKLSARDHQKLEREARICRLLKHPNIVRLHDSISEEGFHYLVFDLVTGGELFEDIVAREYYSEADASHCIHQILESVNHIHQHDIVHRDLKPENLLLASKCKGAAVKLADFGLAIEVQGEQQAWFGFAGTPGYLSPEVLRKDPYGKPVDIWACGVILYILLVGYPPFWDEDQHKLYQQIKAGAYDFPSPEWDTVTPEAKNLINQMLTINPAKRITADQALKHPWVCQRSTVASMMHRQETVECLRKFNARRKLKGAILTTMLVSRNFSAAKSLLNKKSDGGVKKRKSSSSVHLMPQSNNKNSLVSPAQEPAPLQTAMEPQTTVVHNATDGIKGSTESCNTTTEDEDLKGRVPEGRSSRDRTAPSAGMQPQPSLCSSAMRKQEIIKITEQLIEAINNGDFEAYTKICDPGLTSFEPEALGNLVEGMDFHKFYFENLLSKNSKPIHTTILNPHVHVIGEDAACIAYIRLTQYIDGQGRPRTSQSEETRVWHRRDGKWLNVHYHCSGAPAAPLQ
NUAK family SNF1-like kinase 1 (Homo sapiens), sequence (O60285 whole entry): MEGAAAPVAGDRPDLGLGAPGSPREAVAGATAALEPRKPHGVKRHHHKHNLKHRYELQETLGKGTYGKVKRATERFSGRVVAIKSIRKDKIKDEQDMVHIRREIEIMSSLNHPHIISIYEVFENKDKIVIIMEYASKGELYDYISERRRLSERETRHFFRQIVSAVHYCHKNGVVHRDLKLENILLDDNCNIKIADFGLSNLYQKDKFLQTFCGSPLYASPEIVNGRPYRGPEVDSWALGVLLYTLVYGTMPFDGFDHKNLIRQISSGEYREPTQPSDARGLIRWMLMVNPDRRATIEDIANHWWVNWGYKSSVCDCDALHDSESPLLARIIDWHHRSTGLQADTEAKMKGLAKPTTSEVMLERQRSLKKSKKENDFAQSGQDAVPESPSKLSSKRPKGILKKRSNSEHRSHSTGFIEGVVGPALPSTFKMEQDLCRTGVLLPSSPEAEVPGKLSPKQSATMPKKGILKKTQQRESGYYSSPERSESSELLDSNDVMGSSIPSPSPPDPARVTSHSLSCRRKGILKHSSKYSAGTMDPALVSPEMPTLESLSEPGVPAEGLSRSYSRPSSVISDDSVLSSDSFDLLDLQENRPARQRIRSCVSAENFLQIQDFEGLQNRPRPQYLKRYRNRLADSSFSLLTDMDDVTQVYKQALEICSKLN
Serine/threonine-protein kinase Nek2 (Homo sapiens), sequence (P51955 whole entry): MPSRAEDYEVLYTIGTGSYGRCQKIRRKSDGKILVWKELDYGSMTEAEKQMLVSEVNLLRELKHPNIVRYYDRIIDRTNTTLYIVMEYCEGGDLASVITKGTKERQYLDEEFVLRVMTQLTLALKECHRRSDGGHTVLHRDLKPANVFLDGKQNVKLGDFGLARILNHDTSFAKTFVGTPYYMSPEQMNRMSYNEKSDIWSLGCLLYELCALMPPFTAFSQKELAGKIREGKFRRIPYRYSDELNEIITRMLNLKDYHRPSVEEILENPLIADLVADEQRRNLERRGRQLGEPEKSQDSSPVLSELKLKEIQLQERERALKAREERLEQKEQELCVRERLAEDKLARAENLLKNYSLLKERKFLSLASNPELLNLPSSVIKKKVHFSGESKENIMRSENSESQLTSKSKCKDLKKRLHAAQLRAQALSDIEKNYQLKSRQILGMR
Mast/stem cell growth factor receptor Kit (Homo sapiens), sequence (P10721 whole entry): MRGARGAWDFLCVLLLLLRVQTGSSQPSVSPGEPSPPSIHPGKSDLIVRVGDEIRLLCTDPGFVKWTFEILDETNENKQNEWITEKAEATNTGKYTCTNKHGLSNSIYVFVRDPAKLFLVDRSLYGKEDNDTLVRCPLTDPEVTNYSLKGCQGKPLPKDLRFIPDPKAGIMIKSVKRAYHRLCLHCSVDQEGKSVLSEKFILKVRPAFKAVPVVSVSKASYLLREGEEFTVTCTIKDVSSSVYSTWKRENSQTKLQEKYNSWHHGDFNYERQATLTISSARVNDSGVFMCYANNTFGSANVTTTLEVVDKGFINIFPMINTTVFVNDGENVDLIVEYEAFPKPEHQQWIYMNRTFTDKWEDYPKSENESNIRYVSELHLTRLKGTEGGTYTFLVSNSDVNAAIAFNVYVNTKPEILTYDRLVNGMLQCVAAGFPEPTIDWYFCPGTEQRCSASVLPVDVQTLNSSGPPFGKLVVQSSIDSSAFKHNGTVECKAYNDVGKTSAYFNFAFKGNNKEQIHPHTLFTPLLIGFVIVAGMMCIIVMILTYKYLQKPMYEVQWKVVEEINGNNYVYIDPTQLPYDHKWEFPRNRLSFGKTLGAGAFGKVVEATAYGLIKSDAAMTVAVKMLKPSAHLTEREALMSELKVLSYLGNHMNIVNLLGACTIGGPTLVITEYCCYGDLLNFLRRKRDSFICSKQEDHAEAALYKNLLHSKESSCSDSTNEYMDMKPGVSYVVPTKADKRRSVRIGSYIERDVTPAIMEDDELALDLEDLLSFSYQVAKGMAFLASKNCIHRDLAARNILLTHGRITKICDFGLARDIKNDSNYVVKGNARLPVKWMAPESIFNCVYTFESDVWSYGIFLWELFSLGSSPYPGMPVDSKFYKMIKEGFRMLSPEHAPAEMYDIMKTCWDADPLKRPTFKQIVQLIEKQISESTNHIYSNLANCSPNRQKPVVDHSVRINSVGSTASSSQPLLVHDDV

Regarding `COC(=O)Nc1cc(-c2c(C3CC3)n[nH]c2C)cc2[nH]ncc12`, the inhibition came out at 5% in experiment [1], 1% in experiment [2], 0.7% in experiment [3] and 4% in experiment [4].
On to `Cc1[nH]nc(C2CC2)c1-c1ccc2c(-c3ccc(N4CCN(C)CC4)nc3)n[nH]c2c1`, for which the inhibition in experiment [5] was -4%; in experiment [6], 3%.

For the origin of these results see ChEMBL document CHEMBL4118098, “Discovery of DS28120313 as a potent orally active hepcidin production inhibitor: Design and optimization of novel 4,6-disubstituted indazole derivatives” (Bioorg Med Chem Lett, 2017).
